Source: PubChem BioAssay AID1963866 (Molecular Pharmacology Branch, DTP, NCI, 2024)

System: PDC KRAS tumor spheroids with HUVEC/MSC, viability
Assay: Anticancer human tumor 349418-098-R-PDC patient-derived lung adenocarcinoma cell line growth inhibition [KRAS2]
Conditions: for IC50: curve of first compound; for viability, T/C: stronger effect = lower value
Source text: Multicellular complex tumor spheroid response to RAS pathway inhibitors in combination with a targeted agents in patient-derived cell lines with oncogenic KRAS variants from multiple cancer types
A high-throughput screen of multi-cell type tumor spheroids was designed to identify active combinations of targeted small molecules and KRAS pathway inhibitors. Complex spheroids include a stromal component modeled by human endothelial cells (HUVEC) and fibroblasts modeled by human mesenchymal stem cells (MSCs). The concentration ranges selected for each drug and investigational agent were based upon clinically achievable concentrations if the clinical Cmax of the agent was known.
Compounds. The drugs and investigational agents: BI-3406 (NSC825286), BAY-293 (NSC824723), batoprotafib (TNO155; NSC825523), sotorasib (AMG 510; NSC818433), MRTX1257 (NSC819558), elimusertib (BAY 1895344; NSC800525), molibresib (GSK525762; NSC774829), temuterkib (LY3214996; NSC803410), venetoclax (NSC766270), alisertib (NSC759677), olaparib (NSC753686), talazoparib (NSC767125), erdafitinib (NSC781556), ipatasertib (NSC767898), cabozantinib (NSC761068), nintedanib (NSC756659), abemaciclib (NSC768073), docetaxel (NSC628503), trametinib (NSC758246), and sapanisertib (NSC764658) were obtained from the National Cancer Institute (NCI) Developmental Therapeutics Program Chemical Repository. The FDA-approved anticancer drug set is available from the Developmental Therapeutics Program. […] The stock solutions were prepared in dimethyl sulfoxide (DMSO, Sigma-Aldrich, St. Louis, MO, cat. D2650) at 800-fold the tested concentration and stored at -70 degrees C prior to their use. All drugs and investigational agents were tested over a range starting from a high concentration at or near the clinical Cmax and decreasing in half-log increments. If the clinical Cmax for an agent had not been determined, the highest concentration tested was 10 microM.
Cell Culture. All cells were maintained in an incubator at 37 degrees C and 5% CO2 with 95% humidity. The PDC lines were cultured according to standard operating procedures established by the NCI PDMR (https://pdmr.cancer.gov/sops/default.htm). Briefly, all PDCs were thawed and cultured in Matrigel-coated flasks prepared with a working solution of 1X Ham's F-12 nutrient mix, without supplementation (Invitrogen, Waltham, MA, cat. 11765054), 100 U/mL penicillin-streptomycin (Invitrogen, cat. 15140122), and 2.5% Matrigel (Corning Inc., Corning, NY, cat. 354248) for the first three passages. All PDCs were cultured in complete DMEM/F-12 media containing advanced DMEM/F-12 (Invitrogen, cat. 12634028), 4.9% defined fetal bovine serum, heat inactivated (HyClone Laboratories Inc., Logan, UT, cat. SH30070.03HI), 389 ng/mL hydrocortisone (Sigma-Aldrich, cat. H4001), 9.7 ng/mL human EGF recombinant protein (Invitrogen, cat. PHG0313), 23.4 microg/mL adenine (Sigma-Aldrich, cat. A2786), 97.3 U/mL penicillin-streptomycin (Invitrogen, cat. 15140122), 1.9 mM L-glutamine (Invitrogen, cat. 25030081), and 9.7 microM Y-27632 dihydrochloride (Tocris Bioscience, Bristol, United Kingdom, cat. 1254). The PDCs were cultured in complete DMEM/F12 media without 9.7 microM Y-27632 dihydrochloride for at least two passages prior to the screen. The established cell line HOP-62 was cultured in RPMI 1640 medium, HEPES (Invitrogen, cat. 22400105) with 10% defined fetal bovine serum (HyClone Laboratories Inc., cat. SH30070.03) and 2 mM L-glutamine (Invitrogen, cat. 25030081). The pooled donor HUVEC were cultured in endothelial cell growth medium 2 (PromoCell, Heidelberg, Germany, cat. C-22011) and the hMSC were cultured in mesenchymal stem cell growth medium 2 (PromoCell, cat. C-28009). For all experiments, HUVEC and hMSC were used at passages </=5, while the malignant cell lines were used at passages </=15. […]

[1] = second compound 0.1 µM, first compound 0.000316 µM
[2] = second compound 0.1 µM, first compound 0.001 µM
[3] = second compound 0.1 µM, first compound 0.00316 µM
[4] = second compound 0.1 µM, first compound 0.01 µM
[5] = second compound 0.1 µM, first compound 0.0316 µM
[6] = second compound 0.316 µM, first compound 0.000316 µM
[7] = second compound 0.316 µM, first compound 0.001 µM
[8] = second compound 0.316 µM, first compound 0.00316 µM
[9] = second compound 0.316 µM, first compound 0.01 µM
[10] = second compound 0.316 µM, first compound 0.0316 µM
[11] = second compound 1 µM, first compound 0.000316 µM
[12] = second compound 1 µM, first compound 0.001 µM
[13] = second compound 1 µM, first compound 0.00316 µM
[14] = second compound 1 µM, first compound 0.01 µM
[15] = second compound 1 µM, first compound 0.0316 µM
[16] = second compound 3.16 µM, first compound 0.000316 µM
[17] = second compound 3.16 µM, first compound 0.001 µM
[18] = second compound 3.16 µM, first compound 0.00316 µM
[19] = second compound 3.16 µM, first compound 0.01 µM
[20] = second compound 3.16 µM, first compound 0.0316 µM
[21] = second compound 10 µM, first compound 0.000316 µM
[22] = second compound 10 µM, first compound 0.001 µM
[23] = second compound 10 µM, first compound 0.00316 µM
[24] = second compound 10 µM, first compound 0.01 µM
[25] = second compound 10 µM, first compound 0.0316 µM
[26] = second compound 0.1 µM, first compound 0.1 µM
[27] = second compound 0.316 µM, first compound 0.1 µM
[28] = second compound 1 µM, first compound 0.1 µM
[29] = second compound 3.16 µM, first compound 0.1 µM
[30] = second compound 10 µM, first compound 0.1 µM
[31] = second compound 0.1 µM, first compound 0.316 µM
[32] = second compound 0.1 µM, first compound 1 µM
[33] = second compound 0.1 µM, first compound 3.16 µM
[34] = second compound 0.1 µM, first compound 10 µM
[35] = second compound 0.316 µM, first compound 0.316 µM
[36] = second compound 0.316 µM, first compound 1 µM
[37] = second compound 0.316 µM, first compound 3.16 µM
[38] = second compound 0.316 µM, first compound 10 µM
[39] = second compound 1 µM, first compound 0.316 µM
[40] = second compound 1 µM, first compound 1 µM
[41] = second compound 1 µM, first compound 3.16 µM
[42] = second compound 1 µM, first compound 10 µM
[43] = second compound 3.16 µM, first compound 0.316 µM
[44] = second compound 3.16 µM, first compound 1 µM
[45] = second compound 3.16 µM, first compound 3.16 µM
[46] = second compound 3.16 µM, first compound 10 µM
[47] = second compound 10 µM, first compound 0.316 µM
[48] = second compound 10 µM, first compound 1 µM
[49] = second compound 10 µM, first compound 3.16 µM
[50] = second compound 10 µM, first compound 10 µM
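Also: spheroids exposed to compounds for seven days before readout.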

CC(=O)Nc1cccc(-n2c(=O)n(C3CC3)c(=O)c3c(Nc4ccc(I)cc4F)n(C)c(=O)c(C)c32)c1 + C=CC(=O)N1CCN(c2nc(=O)n(-c3c(C)ccnc3C(C)C)c3nc(-c4c(O)cccc4F)c(F)cc23)C(C)C1
IC50 (second compound 0.1 µM): < 0.1 nM
IC50 (second compound 0.316 µM): < 0.1 nM
IC50 (second compound 1 µM): < 0.1 nM
IC50 (second compound 3.16 µM): < 0.1 nM
IC50 (second compound 10 µM): < 0.1 nM
viability, T/C (second compound 0.1 µM, first compound 0.0001 µM): 48.6%
viability, T/C [1]: 21.9%
viability, T/C [2]: 20.4%
viability, T/C [3]: 17.6%
viability, T/C [4]: 11%
viability, T/C [5]: 7.55%
viability, T/C (second compound 0.316 µM, first compound 0.0001 µM): 34.9%
viability, T/C [6]: 31.2%
viability, T/C [7]: 25.3%
viability, T/C [8]: 19.1%
viability, T/C [9]: 11.8%
viability, T/C [10]: 9.88%
viability, T/C (second compound 1 µM, first compound 0.0001 µM): 39.4%
viability, T/C [11]: 34.8%
viability, T/C [12]: 23.4%
viability, T/C [13]: 19.3%
viability, T/C [14]: 13.4%
viability, T/C [15]: 8.89%
viability, T/C (second compound 3.16 µM, first compound 0.0001 µM): 39.5%
viability, T/C [16]: 29%
viability, T/C [17]: 22%
viability, T/C [18]: 20.9%
viability, T/C [19]: 13%
viability, T/C [20]: 10%
viability, T/C (second compound 10 µM, first compound 0.0001 µM): 25.4%
viability, T/C [21]: 17.4%
viability, T/C [22]: 18.2%
viability, T/C [23]: 15.9%
viability, T/C [24]: 10.7%
viability, T/C [25]: 9.82%

CC(C)n1nc(-c2ccc3oc(N)nc3c2)c2c(N)ncnc21 + C=CC(=O)N1CCN(c2nc(=O)n(-c3c(C)ccnc3C(C)C)c3nc(-c4c(O)cccc4F)c(F)cc23)C(C)C1
IC50 (second compound 0.1 µM): 0.827 nM
IC50 (second compound 0.316 µM): 0.865 nM
IC50 (second compound 1 µM): 0.551 nM
IC50 (second compound 3.16 µM): < 0.316 nM
IC50 (second compound 10 µM): < 0.316 nM
viability, T/C [1]: 87.7%
viability, T/C [2]: 42.6%
viability, T/C [3]: 17.4%
viability, T/C [4]: 9.72%
viability, T/C [5]: 7.63%
viability, T/C [26]: 6.75%
viability, T/C [6]: 70.5%
viability, T/C [7]: 47%
viability, T/C [8]: 19%
viability, T/C [9]: 8.07%
viability, T/C [10]: 7.39%
viability, T/C [27]: 6.37%
viability, T/C [11]: 68%
viability, T/C [12]: 30.5%
viability, T/C [13]: 15.7%
viability, T/C [14]: 8.07%
viability, T/C [15]: 6.75%
viability, T/C [28]: 6.16%
viability, T/C [16]: 37.9%
viability, T/C [17]: 35.5%
viability, T/C [18]: 10.3%
viability, T/C [19]: 7.68%
viability, T/C [20]: 6.06%
viability, T/C [29]: 6.09%
viability, T/C [21]: 26.1%
viability, T/C [22]: 15.7%
viability, T/C [23]: 10.1%
viability, T/C [24]: 7.31%
viability, T/C [25]: 6.65%
viability, T/C [30]: 6.48%

COc1cc(Nc2ncc3c(n2)-c2ccc(Cl)cc2C(c2c(F)cccc2OC)=NC3)ccc1C(=O)O + C=CC(=O)N1CCN(c2nc(=O)n(-c3c(C)ccnc3C(C)C)c3nc(-c4c(O)cccc4F)c(F)cc23)C(C)C1
IC50 (second compound 0.1 µM): < 31.6 nM
IC50 (second compound 0.316 µM): < 31.6 nM
IC50 (second compound 1 µM): < 31.6 nM
IC50 (second compound 3.16 µM): < 31.6 nM
IC50 (second compound 10 µM): < 31.6 nM
viability, T/C [5]: 29%
viability, T/C [26]: 18.9%
viability, T/C [31]: 20.6%
viability, T/C [32]: 42.2%
viability, T/C [33]: 61.3%
viability, T/C [34]: 39.2%
viability, T/C [10]: 45.5%
viability, T/C [27]: 34.7%
viability, T/C [35]: 50.7%
viability, T/C [36]: 59.3%
viability, T/C [37]: 42.7%
viability, T/C [38]: 37.5%
viability, T/C [15]: 14.8%
viability, T/C [28]: 32.8%
viability, T/C [39]: 54.8%
viability, T/C [40]: 69.5%
viability, T/C [41]: 53.1%
viability, T/C [42]: 42.8%
viability, T/C [20]: 30.7%
viability, T/C [29]: 32%
viability, T/C [43]: 48.5%
viability, T/C [44]: 37.5%
viability, T/C [45]: 40.9%
viability, T/C [46]: 35.7%
viability, T/C [25]: 29.8%
viability, T/C [30]: 39.5%
viability, T/C [47]: 33.7%
viability, T/C [48]: 35.4%
viability, T/C [49]: 36.8%
viability, T/C [50]: 29.3%

COc1cc2nccc(Oc3ccc(NC(=O)C4(C(=O)Nc5ccc(F)cc5)CC4)cc3)c2cc1OC + C=CC(=O)N1CCN(c2nc(=O)n(-c3c(C)ccnc3C(C)C)c3nc(-c4c(O)cccc4F)c(F)cc23)C(C)C1
IC50 (second compound 0.1 µM): 1690 nM
IC50 (second compound 0.316 µM): 1650 nM
IC50 (second compound 1 µM): 1610 nM
IC50 (second compound 3.16 µM): 1190 nM
IC50 (second compound 10 µM): < 31.6 nM
viability, T/C [5]: 99.4%
viability, T/C [26]: 98.3%
viability, T/C [31]: 90.7%
viability, T/C [32]: 78.6%
viability, T/C [33]: 13.2%
viability, T/C [34]: 18.1%
viability, T/C [10]: 93.2%
viability, T/C [27]: 92.2%
viability, T/C [35]: 86.4%
viability, T/C [36]: 75.9%
viability, T/C [37]: 9.48%
viability, T/C [38]: 22.8%
viability, T/C [15]: 83.2%
viability, T/C [28]: 80.7%
viability, T/C [39]: 73.2%
viability, T/C [40]: 76.7%
viability, T/C [41]: 10.7%
viability, T/C [42]: 14.3%
viability, T/C [20]: 62.1%
viability, T/C [29]: 64.5%
viability, T/C [43]: 58.6%
viability, T/C [44]: 56.4%
viability, T/C [45]: 10.2%
viability, T/C [46]: 16.6%
viability, T/C [25]: 30.1%
viability, T/C [30]: 38.1%
viability, T/C [47]: 36%
viability, T/C [48]: 30.1%
viability, T/C [49]: 7.88%
viability, T/C [50]: 9.17%
